#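 Tested at 5 concentrations; 48 h exposure; 96-well plates; endpoints linearly interpolated, else capped at highest concentration. The concentration for 50% growth inhibition is given as GI50. TGI is the concentration that stops growth completely.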
# Tests used:
# Experiment in all cases: DTP human tumour cell line panel, 48 h
# [1] = test system: TK-10 renal
# [2] = test system: COLO 205 colon
# [3] = test system: MOLT-4 leukemia
# [4] = test system: U251 CNS
# [5] = test system: KM12 colon
# [6] = test system: SK-OV-3 ovarian
# [7] = test system: SNB-75 CNS
# [8] = test system: LOX IMVI melanoma
# [9] = test system: SK-MEL-28 melanoma
# [10] = test system: HCC-2998 colon
Compound,TGI [1],TGI [2],TGI [3],TGI [4],TGI [5],TGI [6],TGI [7],TGI [8],TGI [9],GI50 [10],TGI [10],GI50 [2],GI50 [3],GI50 [4],GI50 [5],GI50 [6],GI50 [7],GI50 [8],GI50 [9],GI50 [1]
COc1cccc(SSc2cccc(OC)c2C(=O)O)c1C(=O)O,> 100 µM,> 100 µM,> 100 µM,> 100 µM,> 100 µM,> 100 µM,> 100 µM,> 100 µM,> 100 µM,–,–,–,–,–,–,–,–,–,–,–
COC(=O)C(C(=O)OC)C(Br)C(Br)C(Br)c1ccccc1 (stereo not given),–,4.62 µM,16.8 µM,28 µM,32.4 µM,72.3 µM,25 µM,3.34 µM,25.3 µM,21 µM,37.8 µM,2.14 µM,4.11 µM,14.8 µM,17 µM,23.6 µM,12.5 µM,1.5 µM,12.5 µM,–
COc1ccc(C(=O)c2sc3nc(-c4cccs4)ccc3c2N)cc1OC,–,> 100 µM,18 µM,> 100 µM,> 100 µM,> 100 µM,> 100 µM,> 100 µM,70.4 µM,26.2 µM,> 100 µM,5.35 µM,3.78 µM,7.78 µM,4.42 µM,51.9 µM,4.06 µM,6.73 µM,4.98 µM,–
Nc1nc(N)c2nc3c(nc2n1)CCCCCCCCCC3,–,> 100 µM,> 100 µM,> 100 µM,> 100 µM,> 100 µM,51.2 µM,> 100 µM,> 100 µM,3.83 µM,> 100 µM,6.83 µM,3.83 µM,2.71 µM,8.6 µM,12 µM,5.35 µM,0.733 µM,> 100 µM,–
OCCN(CCO)c1cccc(N(CCO)CCO)n1,> 100 µM,> 100 µM,> 100 µM,> 100 µM,> 100 µM,> 100 µM,> 100 µM,> 100 µM,> 100 µM,–,–,–,–,–,–,–,–,–,–,–
O=[N+]([O-])c1cc([N+](=O)[O-])c(Cl)cc1Cl,3.16 µM,3.65 µM,4.4 µM,0.476 µM,3.05 µM,3.21 µM,2.92 µM,1.46 µM,3.24 µM,–,–,1.77 µM,0.918 µM,0.211 µM,1.64 µM,1.78 µM,1.51 µM,0.361 µM,1.74 µM,1.65 µM
O=C1c2cccnc2C(=O)c2c1c(C(=O)OCCCN1CCCCC1)c1ccccn21,4.18 µM,0.0303 µM,> 36.4 µM,0.0372 µM,0.165 µM,< 0.0199 µM,< 0.0187 µM,< 0.01 µM,3.74 µM,–,–,< 0.0128 µM,0.1 µM,< 0.01 µM,< 0.0185 µM,< 0.01 µM,< 0.01 µM,< 0.01 µM,0.034 µM,0.0272 µM
CCCCOC1OC(COC(=O)C(C)C)C(OC(=O)C(C)C)C(O)C1OC1OC(C)C(OC(=O)CCC)C(OC(=O)C(C)C)C1O (stereo not given),25.9 µM,25.8 µM,4.12 µM,26.4 µM,29 µM,34 µM,31.4 µM,26.1 µM,30 µM,–,–,13.1 µM,1.71 µM,13.6 µM,15.1 µM,19.8 µM,17.6 µM,13.3 µM,16.2 µM,13.2 µM
C=Cn1c([N+](=O)[O-])cnc1/C=C/c1ccc(C(=O)OCCN2CCOCC2)cc1,> 100 µM,> 100 µM,> 100 µM,> 100 µM,> 100 µM,> 100 µM,> 100 µM,> 100 µM,> 100 µM,–,–,–,–,–,–,–,–,–,–,–
N#Cc1cccc(C=NC23CC4CC(CC(C4)C2)C3)c1,> 100 µM,> 100 µM,> 100 µM,> 100 µM,> 100 µM,> 100 µM,–,> 100 µM,> 100 µM,–,> 100 µM,–,–,–,–,–,–,–,–,–
COc1cccc(N2C(=O)C3C4C=C5c6ccccc6N(c6ccccc6)C5(C3C2=O)[C@H]2C(=O)N(c3cccc(OC)c3)C(=O)[C@@H]42)c1 (stereo not given in full),> 100 µM,> 100 µM,> 100 µM,> 100 µM,> 100 µM,> 100 µM,> 100 µM,> 100 µM,–,–,–,–,–,–,–,–,–,–,–,–
CC([O-])=C1C(=O)c2ccccc2C1=O.CC([O-])=C1C(=O)c2ccccc2C1=O.CC[O-].CC[O-].[Ti+4],–,> 100 µM,> 100 µM,> 100 µM,> 100 µM,> 100 µM,> 100 µM,> 100 µM,> 100 µM,> 100 µM,> 100 µM,91.7 µM,> 100 µM,> 100 µM,> 100 µM,> 100 µM,> 100 µM,> 100 µM,> 100 µM,–
COC(=O)Cc1cc(=O)[nH]c2c1C(=O)CCC2,> 100 µM,–,> 100 µM,> 100 µM,> 100 µM,> 100 µM,–,–,> 100 µM,–,> 100 µM,–,–,–,–,–,–,–,–,–
O=C1CCCCC12CCC/C2=N\O (stereo not given),> 100 µM,> 100 µM,> 100 µM,> 100 µM,> 100 µM,> 100 µM,> 100 µM,–,> 100 µM,–,> 100 µM,–,–,–,–,–,–,–,–,–
COc1ccc(-c2c3c(nc4n[nH]c(-c5ccc(Cl)cc5)c24)-c2ccccc2C(=O)C3=O)cc1,3.32 µM,2.99 µM,14.9 µM,2.81 µM,3.16 µM,3.23 µM,2.76 µM,–,3.9 µM,1.73 µM,3.19 µM,1.57 µM,2.44 µM,1.46 µM,1.62 µM,1.68 µM,1.19 µM,–,1.84 µM,1.8 µM
O=C1OC(=O)C2C3C=CC(C12)C1C2C=CC2C31 (stereo not given),> 100 µM,> 100 µM,> 100 µM,> 100 µM,> 100 µM,> 100 µM,–,> 100 µM,> 100 µM,–,> 100 µM,–,–,–,–,–,–,–,–,–
O=C(NCCCl)SCCO,> 100 µM,> 100 µM,> 100 µM,> 100 µM,> 100 µM,> 100 µM,> 100 µM,–,> 100 µM,–,> 100 µM,–,–,–,–,–,–,–,–,–
COc1c(N2CCN(CN3C(=O)C(=O)c4cc(Cl)ccc43)C(C)C2)c(F)cc2c(=O)c(C(=O)O)cn(C3CC3)c12 (stereo not given),> 100 µM,> 100 µM,> 100 µM,> 100 µM,> 100 µM,–,> 100 µM,> 100 µM,> 100 µM,–,–,80.6 µM,4.98 µM,41.3 µM,35.2 µM,–,> 100 µM,19 µM,97.5 µM,27.1 µM
COc1ccc(-c2csc(NC(=O)CN3CCN(c4cc5c(cc4F)c(=O)c(C(=O)O)cn5C4CC4)CC3)n2)cc1,22.9 µM,–,–,13.9 µM,> 100 µM,8.32 µM,34.2 µM,–,> 100 µM,4.8 µM,> 100 µM,–,–,3.03 µM,3.37 µM,2.86 µM,3.31 µM,–,3.72 µM,4.62 µM
Cl.Fc1c[c-]c(-c2ccccn2)c(F)c1.[Pt].c1ccc([PH+](C[PH+](c2ccccc2)c2ccccc2)c2ccccc2)cc1,1.43 µM,–,–,–,1 µM,0.84 µM,0.781 µM,–,0.706 µM,–,–,–,–,–,0.276 µM,0.293 µM,0.183 µM,–,0.231 µM,0.274 µM
CCOc1ccc2c(c1)c(CC(=O)O)cn2C,> 100 µM,> 100 µM,> 100 µM,> 100 µM,> 100 µM,> 100 µM,–,> 100 µM,> 100 µM,–,> 100 µM,–,–,–,–,–,–,–,–,–
CC(=O)c1ccc(NC(=O)C(=O)C(C#N)CC(C)(C)C=O)cc1 (stereo not given),> 100 µM,> 100 µM,> 100 µM,> 100 µM,> 100 µM,> 100 µM,–,> 100 µM,> 100 µM,–,> 100 µM,–,–,–,–,–,–,–,–,–
CCCCCCCCCCCc1c(O)c(=O)c2c(oc3c(=O)c(CCCCCCCCCCC)c(O)c(=O)c3n2-c2ccc(N(C)C)cc2)c1=O,33 µM,38.1 µM,> 100 µM,44.1 µM,26.8 µM,37.9 µM,62.4 µM,50.7 µM,40 µM,–,–,–,–,–,–,–,–,–,–,–
CCN1C(=NCCO)NS(=O)(=O)c2ccccc21,> 100 µM,> 100 µM,> 100 µM,> 100 µM,> 100 µM,> 100 µM,–,> 100 µM,> 100 µM,–,> 100 µM,–,–,–,–,–,–,–,–,–
Cc1nc2cc(Nc3nc(Nc4ccc(F)cc4)nc(N4CCOCC4)n3)ccc2n1Cc1ccccc1,–,3.33 µM,8.04 µM,4.6 µM,14.2 µM,25.1 µM,20.4 µM,20.7 µM,9.6 µM,–,–,1.84 µM,2.7 µM,1.99 µM,3.77 µM,10.5 µM,2.73 µM,4.3 µM,3.17 µM,–
CN(CCC(=O)/C(=C\c1ccccc1)c1ccc(Cl)cc1)Cc1ccccc1,5.43 µM,7.24 µM,6.88 µM,4.35 µM,11 µM,26.4 µM,31.8 µM,–,–,3.54 µM,9.77 µM,2.75 µM,1.49 µM,1.9 µM,3.07 µM,12.7 µM,10.2 µM,–,–,2.34 µM
